Test results published in patent US20080279775A1, “Benztropinamine Analogs as Dopamine Uptake Inhibitors” (priority 2005, published 2008).
Counter-ions that a name gives are not always drawn. Like-named read-outs stand apart in the source and are kept apart here.

Experiments:
DAT = molecular target: T1, DAT (Rattus norvegicus, UniProt P23977); assay: Dopamine transporter binding assay, displacement of [3H]WIN 35,428; conditions: for Reduction of binding affinity at the DAT compared to 2a: lower affinity than 2a; for Ki: rat caudate-putamen membranes, read-out: DAT [3H]WIN 35,428 Ki ± SEM
T1 construct: their brains removed to an ice-cooled dish for dissection of the caudate putamen; from tissue; host or cells: rat caudate putamen membranes (fresh homogenates)
T1 sequence (P23977 whole entry): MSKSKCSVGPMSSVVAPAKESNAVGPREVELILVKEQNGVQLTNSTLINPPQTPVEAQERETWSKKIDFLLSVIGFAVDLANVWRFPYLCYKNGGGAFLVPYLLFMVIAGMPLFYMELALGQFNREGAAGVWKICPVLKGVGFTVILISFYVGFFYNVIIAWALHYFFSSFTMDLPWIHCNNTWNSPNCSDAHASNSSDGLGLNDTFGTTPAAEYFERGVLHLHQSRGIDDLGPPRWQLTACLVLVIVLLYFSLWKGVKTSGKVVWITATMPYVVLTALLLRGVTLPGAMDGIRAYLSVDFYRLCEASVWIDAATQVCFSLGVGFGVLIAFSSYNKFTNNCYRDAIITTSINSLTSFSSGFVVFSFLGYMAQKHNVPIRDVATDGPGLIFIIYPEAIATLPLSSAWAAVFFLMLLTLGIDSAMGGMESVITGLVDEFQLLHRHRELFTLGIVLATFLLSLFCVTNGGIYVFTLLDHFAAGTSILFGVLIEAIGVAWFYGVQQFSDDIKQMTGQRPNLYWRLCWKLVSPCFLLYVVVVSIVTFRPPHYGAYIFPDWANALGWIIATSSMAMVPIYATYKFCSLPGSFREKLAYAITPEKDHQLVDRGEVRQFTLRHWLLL

SERT = molecular target: T2, SERT (Rattus norvegicus, UniProt P31652); assay: [3H]Citalopram binding assay; conditions: for Binding selectivity SERT/DAT: Ki ratio
T2 construct: Membranes from frozen rat midbrain were homogenized; from tissue; host or cells: frozen rat midbrain membranes
T2 sequence (P31652 whole entry): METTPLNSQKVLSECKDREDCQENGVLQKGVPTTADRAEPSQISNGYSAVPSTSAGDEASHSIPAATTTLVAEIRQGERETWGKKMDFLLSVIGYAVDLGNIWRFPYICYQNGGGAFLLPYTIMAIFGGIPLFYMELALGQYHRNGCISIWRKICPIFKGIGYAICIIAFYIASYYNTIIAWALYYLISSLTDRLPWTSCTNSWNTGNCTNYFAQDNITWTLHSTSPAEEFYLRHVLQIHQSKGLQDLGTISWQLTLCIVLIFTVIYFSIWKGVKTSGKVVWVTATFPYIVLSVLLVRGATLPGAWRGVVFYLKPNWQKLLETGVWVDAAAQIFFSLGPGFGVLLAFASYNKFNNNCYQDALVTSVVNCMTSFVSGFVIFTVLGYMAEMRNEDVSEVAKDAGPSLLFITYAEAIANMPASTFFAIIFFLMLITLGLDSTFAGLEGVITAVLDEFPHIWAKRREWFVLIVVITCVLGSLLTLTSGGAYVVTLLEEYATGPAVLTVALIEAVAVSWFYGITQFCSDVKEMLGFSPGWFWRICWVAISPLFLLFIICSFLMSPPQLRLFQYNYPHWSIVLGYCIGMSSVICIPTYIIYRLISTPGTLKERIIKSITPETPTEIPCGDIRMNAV
Protocol: (§1) In order to understand the neurochemical and behavioral properties of the compounds of the present invention, exemplary benztropinamine analogs were evaluated for displacement of [^3H]WIN 35,428 (2β-carbomethoxy-3β-(4-fluorophenyl)tropane) binding to the DAT in rat caudate-putamen. These benztropinamine analogs were also evaluated for displacement of radiolabeled ligand binding at the serotonin (SERT) and norepinephrine (NET) transporters as well as the muscarinic m1 receptor (M1), Table 1, infra. The NET over DAT selectivity refers to the Ki ratio. When the Ki ratio is greater than 1, the compound is DAT selective. The DAT selectivities of the analogs over these binding sites are depicted in Table 2.
[^3H]Citalopram Binding Assay. Membranes from frozen rat midbrain were homogenized in 20 volumes (w/v) of 50 mM Tris containing 120 mM NaCl and 5 mM KCl (pH 7.4 at 25° C.), using a Brinkman Polytron (at setting 6 for 20 sec). The tissue was centrifuged at 20,000×g for 10 min at 4° C. The resulting pellet was resuspended in buffer and recentrifuged. The final pellet was resuspended in cold buffer to a concentration of 15 mg/ml (original wet weight). Ligand binding experiments were conducted in assay tubes containing 0.5 ml of buffer, 1.4 nM [^3H]citalopram (New England Nuclear, Boston Mass.), and 1.5 mg midbrain tissue. The reaction was started with the addition of the tissue and the tubes were incubated for 60 min at 25° C. (room temperature). The incubation was terminated by rapid filtration through Whatman GF/B filters (presoaked in 0.3% polyethylenimine in water) using a Brandel Cell Harvester (Brandel Instruments Gaithersburg, Md.). The filters were washed twice with 5 ml cold buffer, transferred to scintillation vials to which Beckman Ready Safe was added. Nonspecific binding was determined using 10 μM fluoxetine (RBI, Natick, Mass.). Data were analyzed using GraphPad Prism software (San Diego, Calif.).

muscarinic M1 receptor = molecular target: T3, muscarinic M1 receptor (Rattus norvegicus, UniProt P08482); assay: [3H]Pirenzepine binding assay; conditions: for Binding selectivity M1/DAT: Ki ratio; for Lower binding affinity at the M1 receptor compared to 2a: lower affinity than 2a
T3 construct: Membranes from frozen rat brains excluding cerebellum were thawed in ice-cold buffer; from tissue; host or cells: frozen rat brain (excluding cerebellum) membranes
T3 sequence (P08482 1-460): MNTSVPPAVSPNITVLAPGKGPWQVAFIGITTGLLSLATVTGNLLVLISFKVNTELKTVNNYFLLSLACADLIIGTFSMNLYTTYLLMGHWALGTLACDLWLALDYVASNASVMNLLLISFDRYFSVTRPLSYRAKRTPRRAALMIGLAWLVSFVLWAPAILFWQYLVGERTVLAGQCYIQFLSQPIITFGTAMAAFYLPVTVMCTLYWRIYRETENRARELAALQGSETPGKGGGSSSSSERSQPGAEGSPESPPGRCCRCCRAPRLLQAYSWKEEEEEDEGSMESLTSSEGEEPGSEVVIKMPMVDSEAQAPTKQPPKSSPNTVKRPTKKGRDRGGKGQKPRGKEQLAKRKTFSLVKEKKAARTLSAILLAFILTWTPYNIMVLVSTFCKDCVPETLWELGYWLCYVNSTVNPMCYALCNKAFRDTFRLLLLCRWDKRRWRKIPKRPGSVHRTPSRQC
Protocol: as §1, with “When the Ki ratio is greater than 1, the compound is DAT selective.” left out
[…] Binding Assay. Membranes from frozen rat brains excluding cerebellum were thawed in ice-cold buffer (10 mM Tris-HCl, 320 mM sucrose, pH 7.4) and homogenized with a Brinkman polytron in a volume of 10 ml/gm of tissue. The homogenate was centrifuged at 1,000×g for 10 min at 4° C. The resulting supernatant was then centrifuged at 10,000×g for 20 min at 4° C. The resulting pellet was resuspended in a volume of 200 mg/ml in 10 mM Tris buffer (pH 7.4). Ligand binding assays were conducted in tubes containing 0.5 ml of buffer (10 mM Tris-HCl, 5 mM MgCl2), 3 nM [^3H]pirenzepine (New England Nuclear, Boston, Mass.), and 20 mg of brain tissue. The reaction was started with the addition of the tissue and the tubes were incubated for 60 min in a 37° C. water bath. The incubation was terminated by the addition of 5 ml of ice-cold buffer (10 mM Tris-HCl, pH 7.4) and rapid filtration through Whatman GF/B glass fiber filter paper (presoaked in 0.5% polyethylenimine) using a Brandel Cell Harvester (Brandel Instruments, Gaithersburg, Md.). The filters were washed twice with 5 ml cold buffer, and transferred to scintillation vials to which absolute ethanol and Beckman Ready Safe was added. Quinuclidinyl benzilate (QNB), 100 μM final concentration, was used to determine non-specific binding. Data were analyzed by using GraphPad Prism software (San Diego, Calif.).

NET [1] = assay type: binding, rat; conditions: for Binding selectivity NET/DAT: Ki ratio
Protocol: as §1
(§2) [^3H]Nisoxetine Binding Assay. Membranes from frozen frontal cortex dissected from male Sprague-Dawley rats (Taconic Labs, Germantown, N.Y.) were homogenized in 20 volumes (w/v) of 50 mM Tris containing 120 mM NaCl and 5 mM KCl (pH 7.4 at 25° C.), using a Brinkman Polytron (at setting 6 for 20 sec). The tissue was centrifuged at 50,000×g for 10 min at 4° C. The resulting pellet was resuspended in buffer and recentrifuged. The final pellet was resuspended in cold buffer to a concentration of 80 mg/ml (original wet weight). Ligand binding experiments were conducted in assay tubes containing 0.5 ml buffer, 0.5 nM [3H]nisoxetine (New England Nuclear, Boston, Mass.), and 8 mg frontal cortex tissue. The reaction was started with the addition of the tissue and the tubes were incubated for 60 min at 0-4° C. The incubation was terminated by rapid filtration through Whatman GF/B filters, presoaked in 0.05% polyethylenimine, using a Brandel Cell Harvester (Brandel Instruments Gaithersburg, Md.). The filters were washed twice with 5 ml cold buffer, transferred to scintillation vials to which Beckman Ready Safe was added. Nonspecific binding was determined using 1 μM desipramine. Data were analyzed using GraphPad Prism software (San Diego, Calif.).

NET [2] = molecular target: NET (Rattus norvegicus, UniProt Q63380); assay type: binding
Sequence of NET (Rattus norvegicus, UniProt Q63380) (Q63380 1-617): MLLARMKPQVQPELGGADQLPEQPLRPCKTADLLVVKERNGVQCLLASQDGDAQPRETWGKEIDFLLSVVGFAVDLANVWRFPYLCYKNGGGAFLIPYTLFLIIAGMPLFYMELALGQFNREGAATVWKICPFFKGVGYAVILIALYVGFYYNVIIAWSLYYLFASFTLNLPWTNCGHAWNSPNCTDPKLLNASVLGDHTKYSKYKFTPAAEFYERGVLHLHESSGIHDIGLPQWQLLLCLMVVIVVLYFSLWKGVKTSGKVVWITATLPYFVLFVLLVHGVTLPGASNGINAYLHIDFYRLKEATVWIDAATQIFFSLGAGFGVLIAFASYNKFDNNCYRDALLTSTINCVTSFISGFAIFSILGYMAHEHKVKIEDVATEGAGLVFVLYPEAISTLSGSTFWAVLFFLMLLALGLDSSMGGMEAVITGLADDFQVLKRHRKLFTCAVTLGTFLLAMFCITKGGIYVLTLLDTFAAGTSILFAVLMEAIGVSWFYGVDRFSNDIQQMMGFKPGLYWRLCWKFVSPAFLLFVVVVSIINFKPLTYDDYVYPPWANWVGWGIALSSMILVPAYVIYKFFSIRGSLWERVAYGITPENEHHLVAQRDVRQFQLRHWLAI
Protocol: as §1, §2

mice = assay: Locomotor stimulant effects (activity counts per minute); assay type: in vivo; conditions: injected, at the most effective dose, FIG. 2
Excerpt: In contrast, 2m produced much more modest increases in activity of around 100 counts per min.

[3] = rat midbrain membranes, read-out: SERT [3H]citalopram Ki ± SEM
[4] = rat brain membranes excluding cerebellum, read-out: M1 [3H]pirenzepine Ki ± SEM

For `Fc1ccc(C(N[C@H]2C[C@H]3CC[C@@H](C2)N3CCc2c[nH]c3ccccc23)c2ccc(F)cc2)cc1` [Compound 2l], the “Reduction of binding affinity at the DAT compared to 2a” value (“Reduction of binding affinity” below) (DAT) was 6 fold, the Ki (SERT; [3]) was 347 ± 41.3 nM and the Ki (muscarinic M1 receptor; [4]) was 413 ± 6.55 nM.
For `CCCCN1[C@@H]2CC[C@H]1C[C@@H](NC(c1ccc(F)cc1)c1ccc(F)cc1)C2` [Compound 2i], the Ki (DAT) was 21.5 ± 2.31 nM, the “Binding selectivity SERT/DAT” value (SERT) was 123 and the Ki (SERT; [3]) was 2640 ± 27.6 nM. The “Binding selectivity NET/DAT” value (NET [1]) was 136, the “Binding selectivity M1/DAT” value (muscarinic M1 receptor) was 21 and the Ki (muscarinic M1 receptor; [4]) was 454 ± 36.7 nM.
With `Fc1ccc(C(N[C@H]2C[C@H]3CC[C@@H](C2)N3)c2ccc(F)cc2)cc1` (as salt: oxalate) [Compound 2g] the melting point was 138 to 140 °C.
For `Fc1ccc(C(N[C@H]2C[C@H]3CC[C@@H](C2)N3CCCCc2ccccc2)c2ccc(F)cc2)cc1` [Compound 2j], the Ki (DAT) was 11.7 ± 0.39 nM, the “Binding selectivity SERT/DAT” value (SERT) was 43 and the Ki (SERT; [3]) was 502 ± 68.1 nM. The “Binding selectivity NET/DAT” value (NET [1]) was 139, the “Binding selectivity M1/DAT” value (muscarinic M1 receptor) was 37 and the Ki (muscarinic M1 receptor; [4]) was 438 ± 56.2 nM.
With `CN1[C@@H]2CC[C@H]1C[C@H](NC(c1ccc(F)cc1)c1ccc(F)cc1)C2` [Compound 2b] the “Reduction of binding affinity” value (DAT) was 58 fold, the Ki (DAT) was 661 ± 35 nM and the Ki (SERT) was 48500 ± 6370 nM. For the same compound, the “Binding selectivity SERT/DAT” value (SERT) was 73, the Ki (NET [2]; read-out: NET [3H]nisoxetine Ki ± SEM, rat frontal cortex membranes) was 15200 ± 1230 nM and the “Binding selectivity NET/DAT” value (NET [1]) was 23. The Ki (muscarinic M1 receptor) was 59.4 ± 7.3 nM and the “Binding selectivity M1/DAT” value (muscarinic M1 receptor) was 0.1.
For `NCCN1[C@@H]2CC[C@H]1C[C@@H](NC(c1ccc(F)cc1)c1ccc(F)cc1)C2` [Compound 2k], the Ki (DAT) was 12.5 ± 1.73 nM, the “Lower binding affinity at the M1 receptor compared to 2a” value (muscarinic M1 receptor) was 170 fold and the Ki (muscarinic M1 receptor; [4]) was 2110 ± 119 nM.
For `CN1[C@@H]2CC[C@H]1C[C@@H](NC(c1ccc(F)cc1)c1ccc(F)cc1)C2` [Compound 2a], the Ki (DAT) was 11.3 ± 1.61 nM, the “Binding selectivity SERT/DAT” value (SERT) was 769 and the Ki (SERT; [3]) was 8680 ± 436 nM. The “Binding selectivity NET/DAT” value (NET [1]) was 160, the “Binding selectivity M1/DAT” value (muscarinic M1 receptor) was 0.7 and the Ki (muscarinic M1 receptor; [4]) was 7.81 ± 1.17 nM.
In the case of `Fc1ccc(C(N[C@H]2C[C@H]3CC[C@@H](C2)N3)c2ccc(F)cc2)cc1` [Compound 2g], the Ki (DAT) is reported as 8.45 ± 0.23 nM, the “Binding selectivity SERT/DAT” value (SERT) is reported as 491 and the Ki (SERT; [3]) is reported as 4150 ± 368 nM. The “Binding selectivity NET/DAT” value (NET [1]) was 118, the “Binding selectivity M1/DAT” value (muscarinic M1 receptor) was 18 and the Ki (muscarinic M1 receptor; [4]) was 154 ± 19.6 nM.
With `C=CCN1[C@@H]2CC[C@H]1C[C@@H](NC(c1ccc(F)cc1)c1ccc(F)cc1)C2` [Compound 2h] the Ki (DAT) was 26.8 ± 3.43 nM, the “Binding selectivity SERT/DAT” value (SERT) was 146 and the Ki (SERT; [3]) was 3920 ± 581 nM. For the same compound, the “Binding selectivity NET/DAT” value (NET [1]) was 208, the “Binding selectivity M1/DAT” value (muscarinic M1 receptor) was 5 and the Ki (muscarinic M1 receptor; [4]) was 130 ± 10.5 nM.
In the case of `CN1[C@@H]2CC[C@H]1C[C@@H](NC(c1ccc(Cl)cc1)c1ccc(Cl)cc1)C2` [Compound 2d], the “Reduction of binding affinity” value (DAT) is reported as “around 3 fold”, the Ki (SERT; [3]) is reported as 4180 ± 623 nM and the Ki (muscarinic M1 receptor; [4]) is reported as 50 ± 7.1 nM.
With `CN1[C@@H]2CC[C@H]1C[C@@H](NC(c1ccccc1)c1ccc(Cl)cc1)C2` (some centres unmarked) [Compound 2e] the “Reduction of binding affinity” value (DAT) was “around 3 fold”, the Ki (DAT) was 36.5 ± 0.66 nM and the “Binding selectivity SERT/DAT” value (SERT) was 373. For the same compound, the Ki (SERT; [3]) was 13600 ± 1040 nM, the “Binding selectivity NET/DAT” value (NET [1]) was 87 and the “Binding selectivity M1/DAT” value (muscarinic M1 receptor) was 0.3. For the same compound, the Ki (muscarinic M1 receptor; [4]) was 9.3 ± 0.27 nM.
With `Fc1ccc(C(N[C@H]2C[C@H]3CC[C@@H](C2)N3CCc2c[nH]c3ccccc23)c2ccc(F)cc2)cc1` (as salt: oxalate) [Compound 2l] the melting point was 178 to 180 °C.
With `CN(C(c1ccc(F)cc1)c1ccc(F)cc1)[C@H]1C[C@H]2CC[C@@H](C1)N2C` [Compound 2c] the “Reduction of binding affinity” value (DAT) was 11 fold, the Ki (DAT) was 123 ± 15.5 nM and the Ki (SERT) was 17200 ± 2460 nM. For the same compound, the “Binding selectivity SERT/DAT” value (SERT) was 140, the “Lower binding affinity at the SERT compared to 2a” value (SERT; lower affinity than 2a) was “about 2 fold” and the “Lower binding affinity at the NET compared to 2a” value (NET [2]; lower affinity than 2a) was “about 5 fold”. The “Binding selectivity NET/DAT” value (NET [1]) was 68, the Ki (muscarinic M1 receptor) was 18.6 ± 2.48 nM and the “Binding selectivity M1/DAT” value (muscarinic M1 receptor) was 0.2. For the same compound, the “Lower binding affinity at the M1 receptor compared to 2a” value (muscarinic M1 receptor) was “about 2 fold”.
`CN(C(c1ccc(F)cc1)c1ccc(F)cc1)[C@H]1C[C@H]2CC[C@@H](C1)N2C` (as salt: oxalate) [Compound 2c] showed a melting point of 227 to 228 °C.
In the case of `COC(=O)[C@H]1[C@@H](OC(=O)c2ccccc2)C[C@@H]2CC[C@H]1N2C` [Cocaine, cocaine, reference compound], the Locomotor activity (mice) is reported as roughly 400 counts per min.
With `CN1[C@@H]2CC[C@H]1C[C@@H](NC(c1ccc(Cl)c(Cl)c1)c1ccc(Cl)c(Cl)c1)C2` [Compound 2f] the “Higher binding affinity at the DAT compared to 2a” value (DAT; higher affinity than 2a) was 2 fold, the Ki (DAT) was 5.35 ± 0.25 nM and the “Binding selectivity SERT/DAT” value (SERT) was 563. The Ki (SERT; [3]) was 3010 ± 332 nM, the “Binding selectivity NET/DAT” value (NET [1]) was 48 and the “Reduction of NET over DAT selectivity compared to 2a” value (NET [1]; compared to 2a) was 3 fold. For the same compound, the “Binding selectivity M1/DAT” value (muscarinic M1 receptor) was 3 and the Ki (muscarinic M1 receptor; [4]) was 17.8 ± 2.27 nM.
In the case of `Fc1ccc(C(N[C@H]2C[C@H]3CC[C@@H](C2)N3CCCCc2ccccc2)c2ccc(F)cc2)cc1` (as salt: oxalate) [Compound 2j], the melting point is reported as 194 to 196 °C.
